The text below walks through data of patent US7358249B2, “Heterocyclic compounds having inhibitory activity against HIV integrase” (Shionogi & Co., Ltd., priority 2002, dated 2008).

Molecules are shown by their SMILES. Bounds are passed on as bounds.

With `COC(=O)c1nc(C(=O)NS(=O)(=O)c2ccccc2)c2cc(Cc3ccc(F)cc3)cnc2c1O`, the melting point lay within 228 to 229 °C.
In turn, `COCCNC(=O)c1nc(C(=O)OC)c(O)c2ncc(Cc3ccc(F)cc3)cc12` had a melting point of 145 to 146 °C.
Compound `COC(=O)c1nc(N2C(=O)COCC2=O)c2cc(Cc3ccc(F)cc3)cnc2c1O` yielded a melting point of 182 to 184 °C.
Compound `CN(C)NC(=O)c1nc(C#CC2=CCCC2)c2cc(Cc3ccc(F)cc3)cnc2c1O` came in with a melting point of 206 to 207 °C.
`COCCNC(=O)c1nc(C#CCNS(C)(=O)=O)c2cc(Cc3ccc(F)cc3)cnc2c1O`: the melting point was 198 °C.
For `COC(=O)c1nc(NS(=O)(=O)NC(=O)OC(C)C)c2cc(Cc3ccc(F)cc3)cnc2c1O`, the melting point was 170 to 172 °C.
The compound `COCCNC(=O)c1nc(NS(C)(=O)=O)c2cc(Cc3ccc(F)cc3)cnc2c1O` displayed a melting point of 241 to 242 °C.
`CC(=O)c1cc(C(=O)O)c2cc(Cc3ccc(F)cc3)cnc2c1O` had a melting point of 239 to 242 °C.
With `COCCCC(=O)c1cc(C(=O)O)c2cc(Cc3ccc(F)cc3)cnc2c1O`, the melting point lay in the range of 226 to 228 °C.
Under `CCN(CCOC)C(=O)c1cc(C(=O)OC)c(O)c2ncc(Cc3ccc(F)cc3)cc12` stands 90 to 91 °C; under `COC(=O)c1cc(C(=O)NCCN)c2cc(Cc3ccc(F)cc3)cnc2c1O`, 229 to 230 °C.
`COC(=O)c1cc(Cc2cc(C(=O)OC)c(O)c3ncc(Cc4ccc(F)cc4)cc23)c2cc(Cc3ccc(F)cc3)cnc2c1O`: the melting point fell in the range of 244 to 245 °C.
Take `COC(=O)c1cc(CC#N)c2cc(Cc3ccc(F)cc3)cnc2c1O`: the melting point lay in the range of 173 to 175 °C.
In turn, `COC(=O)c1cc(CC(N)=O)c2cc(Cc3ccc(F)cc3)cnc2c1O` had a melting point of 209 to 211 °C.
The compound `COC(=O)c1cc(CC(=O)O)c2cc(Cc3ccc(F)cc3)cnc2c1O` yielded a melting point of 218 to 220 °C.
`CONC(=O)c1cc(C(=O)OC)c2cc(Cc3ccc(F)cc3)cnc2c1O` returned a melting point of 186 to 188 °C.
`COCCNC(=O)c1cc(C(=O)OC)c2cc(Cc3ccc(F)cc3)cnc2c1O`: the melting point was in the range of 165 to 167 °C.
With `CCC(=O)c1cc(N2CCCC2=O)c2cc(Cc3ccc(F)cc3)cnc2c1O` the figure was 202 to 203 °C; with `CC(=O)NNC(=O)c1cc(C(=O)OC2CCN(C(C)=O)CC2)c(O)c2ncc(Cc3ccc(F)cc3)cc12`, 129 to 131 °C; with `COC(=O)c1cc(C(=O)Nc2nccs2)c2cc(Cc3ccc(F)cc3)cnc2c1O`, 258 to 259 °C.
The compound `COC(=O)c1cc(C(=O)NCCN2CCOCC2)c2cc(Cc3ccc(F)cc3)cnc2c1O` came in with a melting point of 198 to 199 °C.
In the case of `COC(=O)c1cc(C(=O)O)c2cc(Cc3ccc(F)cc3)cnc2c1O.NCCN`, the melting point was found to be 164 °C.
Regarding `COC(=O)c1cc(C(=O)NNS(C)(=O)=O)c2cc(Cc3ccc(F)cc3)cnc2c1O`, the melting point was over 250 °C.
In the case of `COC(=O)c1cc(C(=O)NN2CCCCC2)c2cc(Cc3ccc(F)cc3)cnc2c1O`, the melting point lay within 233 to 234 °C.
In turn, `C#CCNC(=O)c1cc(C(=O)OC)c(O)c2ncc(Cc3ccc(F)cc3)cc12` showed a melting point of 192 to 193 °C.
Regarding `COC(=O)c1cc(C(=O)N2CCC(C(N)=O)CC2)c2cc(Cc3ccc(F)cc3)cnc2c1O`, the melting point was in the range of 235 to 238 °C.
Take `COC(=O)c1cc(C(=O)NNC(C)=O)c2cc(Cc3ccc(F)cc3)cnc2c1O`: the melting point lay in the range of 208 to 209 °C.
`COC(=O)c1cc(C(=O)NCC(N)=O)c2cc(Cc3ccc(F)cc3)cnc2c1O` showed a melting point of 247 to 248 °C.
As for `COC(=O)c1cc(C(=O)NCCOC(C)C)c2cc(Cc3ccc(F)cc3)cnc2c1O`, the melting point lay within 175 to 176 °C.
Take `COC(=O)c1cc(C(=O)NC(C)(C)CO)c2cc(Cc3ccc(F)cc3)cnc2c1O`: the melting point was in the range of 204 to 205 °C.
`CNNC(=O)c1cc(C(=O)OC)c(O)c2ncc(Cc3ccc(F)cc3)cc12` had a melting point of 188 to 189 °C.

The melting point is the temperature of the solid-liquid transition.
